Measurements taken from patent US4994582A, “Novel antibiotic NK130119” (Nippon Kayaku Kabushiki Kaisha, priority 1989, dated 1991).
In brackets after ≈: the same amount, converted by molar mass. Where two headings read alike, the source gives them in different places.

Key:
[1] = test system: mouse melanoma cells (B16); assay: growth-inhibitory effect on mouse melanoma cells, dye exclusion method; type: cell-based; details: 72 hours
Description: (§1) The growth-inhibitory effects of the compound of the present invention on mouse melanoma cells (B16) and human melanoma cells (G361) were examined. A 96-well plate was inoculated with mouse melanoma cells at a ratio of 1.5×10^3 cells per well, while another 96-well plate was inoculated with human melanoma cells at a ratio of 1.0×10^3 per well. These cells were incubated in an incubator at 37° C. under 5% CO2. Then the compound of the present invention was added thereto at various concentrations. Cells in each well were counted by the dye exclusion method 72 hours after the addition to thereby evaluate the growth-inhibitory effect of the test compound on the mouse melanoma cells and that on the human melanoma cells at various concentrations.

[2] = test system: bovine adrenal capillary endothelial cells; assay: growth-inhibitory effect on endothelial cells, Coulter counter; type: cell-based; details: Bos taurus, Endothelial cell, 72 h, three days
Description: The growth-inhibitory effect of the compound of the present invention on endothelial cells was examined. A 96-well plate was inoculated with bovine adrenal capillary endothelial cells at a ratio of 1×10^4 cells per well. One day after the inoculation, the compound of the present invention was added thereto at various concentrations. Cells in each well were counted with a Coulter counter three days after the addition to thereby evaluate the growth-inhibitory effect of the test compound on the capillary endothelial cells. […] Thus the IC50 of the compound of the present invention on the endothelial cells was 0.0003 μg/ml, showing a strong growth-inhibitory effect.

[3] = test system: human melanoma cells (G361); assay: growth-inhibitory effect on human melanoma cells, dye exclusion method; type: cell-based; details: G-361, 72 hours
Description: as §1

HeLa S3 cells = assay: growth-inhibitory effect on HeLa S3 culture cells, dye exclusion method; type: cell-based; details: Homo sapiens, 72 h
Description: The growth-inhibitory effect of the compound of the present invention on HeLa S3 culture cells was examined. A 96-well plate was inoculated with HeLa S3 cells at a ratio of 1.5×10^3 cells/well and incubated. One day after the inoculation, the compound of the present invention was added to the culture medium at various concentrations. Three days after the addition, cells in each well were counted by the dye exclusion method to thereby evaluate the growth-inhibitory effect of the compound of the present invention at various concentrations on HeLa S3 cells.

[4] = test system: larva of mosquito culices (a sensitive species); assay: insecticidal action, mortality of mosquito larvae; type: in vivo; details: read-out: Mortality rate, larvae of mosquito
Description: The insecticidal action of the compound of the present invention was examined by the following method.
(2) A larva of mosquito culices (a sensitive species) was used as a test vermin, and the mortality rate thereof was assayed according to an ordinary method (described on page 109 of "Noyaku Jikkenho I, Sacchuzaihen" published by Soft Science, Inc.).
Specifically, 10 ml of well water was placed in a vessel (15-ml Petridish), and 5 larvae of mosquito culices (the third stage) were released in the vessel. A solution of the compound of the present invention in acetone (0.1%) was added thereto so as to have a predetermined concentration. The vessel was allowed to stand in a thermostatic chamber (26°±1° C.) for a predetermined period of time, and the life and death of the test vermin were investigated.

solubility = type: physicochemical

## CCC1/C=C/C=C/CC(C)C(O)C(C)(O)C(=O)C(C)C(O)C(C)C(=O)C(C)C(O)C(C)/C=C/C(=O)OC2C(C)C(CC1)OC1(CCC(C)C(CC(C)O)O1)C2CC (centres unmarked) [NK130119]
[1]; Mus musculus, B16, 0.0006 μg/ml, read-out: Growth-inhibitory ratio
  inhibition at 0.0006 µg/mL: 0.63%
[1]; Mus musculus, B16, 0.0024 μg/ml, read-out: Growth-inhibitory ratio
  inhibition at 0.0024 µg/mL: 0.63%
[1]; Mus musculus, B16, 0.0097 μg/ml, read-out: Growth-inhibitory ratio
  inhibition at 0.0097 µg/mL: 1.32%
[1]; Mus musculus, B16, 0.039 μg/ml, read-out: Growth-inhibitory ratio
  inhibition at 0.039 µg/mL: 34.2%
[1]; Mus musculus, B16, 0.156 μg/ml, read-out: Growth-inhibitory ratio
  inhibition at 0.156 µg/mL: 45.9%
[1]; Mus musculus, B16, 0.625 μg/ml, read-out: Growth-inhibitory ratio
  inhibition at 0.625 µg/mL: 49.7%
[1]; Mus musculus, B16, 2.5 μg/ml, read-out: Growth-inhibitory ratio
  inhibition at 2.5 µg/mL: 79%
[1]; Mus musculus, B16, 10 μg/ml, read-out: Growth-inhibitory ratio
  inhibition at 10 µg/mL: 101%
[1]; mouse melanoma cells (B16)
  IC50: 0.64 µg/mL (≈ 0.795 µM)
[2]; bovine adrenal capillary endothelial cells
  IC50: 0.0003 µg/mL (≈ 0.000373 µM)
[2]; endothelial cells, 0.000128 μg/ml, read-out: Growth-inhibitory ratio
  inhibition at 0.000128 µg/mL: 35.2%
[2]; endothelial cells, 0.00064 μg/ml, read-out: Growth-inhibitory ratio
  inhibition at 0.00064 µg/mL: 62.9%
[2]; endothelial cells, 0.0032 μg/ml, read-out: Growth-inhibitory ratio
  inhibition at 0.0032 µg/mL: 77.9%
[2]; endothelial cells, 0.016 μg/ml, read-out: Growth-inhibitory ratio
  inhibition at 0.016 µg/mL: 90.1%
[3]; human melanoma cells (G361)
  IC50: 1.63 µg/mL (≈ 2.02 µM)
[3]; Homo sapiens, G361, 0.0006 μg/ml, read-out: Growth-inhibitory ratio
  inhibition at 0.0006 µg/mL: -2.01%
[3]; Homo sapiens, G361, 0.0024 μg/ml, read-out: Growth-inhibitory ratio
  inhibition at 0.0024 µg/mL: 5.3%
[3]; Homo sapiens, G361, 0.0097 μg/ml, read-out: Growth-inhibitory ratio
  inhibition at 0.0097 µg/mL: 10.8%
[3]; Homo sapiens, G361, 0.039 μg/ml, read-out: Growth-inhibitory ratio
  inhibition at 0.039 µg/mL: 29.6%
[3]; Homo sapiens, G361, 0.156 μg/ml, read-out: Growth-inhibitory ratio
  inhibition at 0.156 µg/mL: 33.9%
[3]; Homo sapiens, G361, 0.625 μg/ml, read-out: Growth-inhibitory ratio
  inhibition at 0.625 µg/mL: 36%
[3]; Homo sapiens, G361, 2.5 μg/ml, read-out: Growth-inhibitory ratio
  inhibition at 2.5 µg/mL: 56.2%
[3]; Homo sapiens, G361, 10 μg/ml, read-out: Growth-inhibitory ratio
  inhibition at 10 µg/mL: 89.6%
HeLa S3 cells; HeLa S3, 0.039 μg/ml, three days, read-out: Growth-inhibitory ratio
  inhibition at 0.039 µg/mL: 40%
HeLa S3 cells; HeLa S3, 0.156 μg/ml, three days, read-out: Growth-inhibitory ratio
  inhibition at 0.156 µg/mL: 43.5%
HeLa S3 cells; HeLa S3, 0.625 μg/ml, three days, read-out: Growth-inhibitory ratio
  inhibition at 0.625 µg/mL: 47.5%
HeLa S3 cells; HeLa S3, 2.5 μg/ml, three days, read-out: Growth-inhibitory ratio
  inhibition at 2.5 µg/mL: 55.3%
HeLa S3 cells; HeLa S3, 10 μg/ml, three days, read-out: Growth-inhibitory ratio
  inhibition at 10 µg/mL: 83.6%
HeLa S3 cells; HeLa S3 cells, three days after addition
  IC50: 0.987 µg/mL (≈ 1.23 µM)
[4]; 48 h, after 2 days
  mortality at 1 ppm: 73%
  mortality at 10 ppm: 100%
[4]; 144 h, after 6 days
  mortality at 1 ppm: 80%
  mortality at 10 ppm: 100%
[4]; 216 h, after 9 days
  mortality at 1 ppm: 80%
  mortality at 10 ppm: 100%
solubility; hexane
  solubility in hexane: hardly soluble
solubility; methanol, acetone, ethyl acetate and ethanol
  solubility in organic solvents: soluble
solubility; water
  solubility in water: hardly soluble
